In brackets after ≈: the same amount, converted by molar mass. Where two headings read alike, the source gives them in different places.
System: Cryptosporidium parvum (CP)
Test: Cell culture model of Cryptosporidium parvum infection in HCT-8 cells, real-time qRT-PCR
Assay type: cell-based
Details: for inhibition at 0.056 µM: HCT-8, @0.056 uM
Description: Fresh oocysts of CP (Iowa strain) were purchased from Bunch Grass Farm (Deary, Id.). Oocysts were further purified by a Percoll-based gradient centrifugation method and surface sterilized with 10% bleach for 7 min on ice, followed by washes with phosphate-buffered saline (PBS). An ileocecal colorectal adenocarcinoma cell line (HCT-8, ATCC #CCL-244) was used to host the growth of CP in vitro. One day before the inoculation, HCT-8 cells were seeded in 96-well plates (2.5×10^4/well) containing RPMI 1640 medium supplied with 10% fetal bovine serum (200 μL medium/well in all experiments) and allowed to grow overnight at 37° C. under 5% CO2 atmosphere until they reached ˜90% confluence. For drug testing, host cells were infected with 1.5×10^4 oocysts per well (ratio ˜1:3). After inoculation, parasite oocysts were allowed to undergo excystation and invasion into host cells for 3 h at 37° C. Free parasites and oocyst walls in the medium were removed from the plates by an exchange of the culture medium. Drugs at specified concentrations were added into the culture at this time point (immediately after the medium exchange). Parasite-infected cells were then incubated at 37° C. for additional 41 h (total 44 h infection time). At least two independent experiments were conducted for every experimental condition, each including two replicates drugs and eight replicates for negative controls.
Plates containing HCT-8 cells infected with CP for 44 h were first centrifuged for 10 min at 1000×g to ensure that free merozoites in the medium were firmly settled on the bottom of the wells. Medium was removed, followed by two gentle washes with PBS. For extracting total RNA, 200 μL of ice-cold Bio-Rad iScript qRT-PCR sample preparation reagent (lysis buffer) (Bio-Rad Laboratories, Hercules, Calif.) was added into each well. Plates were sealed with heat sealing films and subjected to vortex for 20 min. Plates were then incubated at 75° C. for 15 min, followed by centrifugation (5 min, 2000×g) to settle down cell debris. Supernatants were used immediately in subsequent qRT-PCR reactions or the plates were stored at −80° C. until use.
The levels of 18S rRNA transcripts from CP and host cells (referred to as Cp18S and Hs18S) were detected by real-time qRT-PCR method using qScrip™ one-step SYBR green qRT-PCR kit (Quanta Biosciences, Gaithersburg, Md.). Cell lysates prepared as described above were diluted by 100 and 2000 folds for detecting Cp18S and Hs18S transcripts, respectively. Reactions were performed in hard-shell 384-well skirted PCR plates (Bio-Rad Laboratories, Hercules, Calif.) (10 μL/well) containing 3 μL diluted cell lysate, 5 μL one-step SYBR green master mix, 0.2 μl RT master mix and the following primers: Cp18S-1011F and Cp18S-1185R primer pair for Cp18S rRNA, and Hs18S-1F and Hs18S-1R primer pair for Hs18S rRNA. Hs18S levels were used as controls and for normalization.
Real-time qRT-PCR reactions were performed by a Bio-Rad CFX384 Touch Real-Time PCR Detection System. The reactions started with synthesizing cDNA at 50° C. for 20 min, followed by 5 min at 95° C. to denature RNA-cDNA hybrids and deactivate reverse transcriptase, and 40 two-temperature thermal cycles of PCR amplification at 95° C., 10 sec and 58° C., 30 sec. At the end of PCR amplification, melting curve analysis was performed between 65° C. to 95° C. At least 2 technical replicates were included in qRT-PCR reactions for each sample.
The % inhibition (% inh @ (μM)) was calculated using a standard curve.

[1] = Cryptosporidium parvum, 44 h, CP in HCT-8 cells, 44 h infection, 50% reduction of parasite growth vs control, NA: not active, read-out: MIC50
[2] = CP in HCT-8 cells, 44 h infection, 50% reduction of parasite growth vs control, NA: not active, read-out: MIC50

Row | SMILES | MIC50 [1] [µM] | further results
1 | CC(C(=O)N1CCN(C)CC1)c1ccc(Oc2nc3ccc(Cl)cc3s2)cc1 (single isomer, unassigned) [NZ-366 (peak 1), 2-{4-[(6-chloro-1,3-benzothiazol-2-yl)oxy]phenyl}-1-(4-methylpiperazin-1-yl)propan-1-one] | < 0.05 | inhibition at 0.05 µM (Cryptosporidium parvum, HCT-8, @0.05 uM, read-out: % inh @): 85%
2 | CC(C(=O)N1CCN(C)CC1)c1ccc(Oc2nc3ccc(Cl)cc3s2)cc1 (single isomer, unassigned) [NZ-366 (peak 2), 2-{4-[(6-chloro-1,3-benzothiazol-2-yl)oxy]phenyl}-1-(4-methylpiperazin-1-yl)propan-1-one] |  | % inh @ (μM) (@0.05 uM): 81% @0.05 uM; MIC50 [2]: <0.05 µM
3 | CNC(=O)C(C)c1ccc(Oc2nc3ccc(Cl)cc3s2)cc1 (single isomer, unassigned) [NZ-369 (peak 1), 2-{4-[(6-chloro-1,3-benzothiazol-2-yl)oxy]phenyl}-N-methylpropanamide] |  | MIC50 [2]: 0.07 µM (≈ 0.0243 µg/mL)
4 | CNC(=O)C(C)c1ccc(Oc2nc3ccc(Cl)cc3s2)cc1 (single isomer, unassigned) [NZ-369 (peak 2), 2-{4-[(6-chloro-1,3-benzothiazol-2-yl)oxy]phenyl}-N-methylpropanamide] |  | MIC50 (CP in HCT-8 cells, 44 h infection, 50% reduction of parasite growth vs control, NA: not active): ~0.02 µM (≈ 0.00694 µg/mL)
5 | CS(=O)(=O)NC(=O)COc1ccc(Oc2cnc3cc(Cl)ccc3n2)cc1 [NZ-259, 2-{4-[(6-chloroquinoxalin-2-yl)oxy]phenoxy}-N-methanesulfonylacetamide] | > 10 | inhibition at 10 µM (Cryptosporidium parvum, HCT-8, @10 uM, read-out: % inh @): 33%
6 | C[C@@H](Oc1ccc(Oc2nc3ccc([N+](=O)[O-])cc3s2)cc1)C(=O)O [NZ-261, (2R)-2-{4-[(6-nitro-1,3-benzothiazol-2-yl)oxy]phenoxy}propanoic acid] |  | MIC50 (Cryptosporidium parvum, 44 h): ~10 µM (≈ 3.6 µg/mL); inhibition at 10 µM (Cryptosporidium parvum, HCT-8, read-out: % inh @ (μM)): 60%
7 | CN1CCN(C(=O)COc2ccc(Oc3cnc4cc(Cl)ccc4n3)cc2)CC1 [NZ-278, 2-{4-[(6-chloroquinoxalin-2-yl)oxy]phenoxy}-1-(4-methylpiperazin-1-yl)ethan-1-one] |  | MIC50 (Cryptosporidium parvum, 44 h): ~0.25 µM (≈ 0.103 µg/mL)
8 | CC(C(=O)NCCN)c1ccc(Oc2nc3ccc(Cl)cc3s2)cc1 (stereo not shown) [NZ-518, N-(2-aminoethyl)-2-{4-([6-chloro-1,3-benzothiazol-2-yl)oxy]phenyl}propanamide] | > 0.45 | 
9 | CC(C(=O)N1CCOCC1)c1ccc(Oc2cnc3cc(Cl)ccc3n2)cc1 (stereo not shown) [NZ-529, 2-{4-[(6-chloroquinoxalin-2-yl)oxy]phenyl}-1-(morpholin-4-yl)propan-1-one] | > 0.45 | 
10 | CC(C(=O)N(C)C)c1ccc(Oc2cnc3cc(Cl)ccc3n2)cc1 (stereo not shown) [NZ-530, 2-{4-([6-chloroquinoxalin-2-yl)oxy]phenyl}-N,N-dimethylpropanamide] | ~0.225 (≈ 0.0801 µg/mL) | 
11 | CC(C(=O)NCCN(C)C)c1ccc(Oc2cnc3cc(Cl)ccc3n2)cc1 (stereo not shown) [NZ-535] | 0.225 to 0.45 (≈ 0.0898 to 0.18 µg/mL) | 
12 | COCC(COC)NC(=O)C(C)c1ccc(Oc2nc3ccc(Cl)cc3s2)cc1 (stereo not shown) [NZ-542, 2-{4-[(6-chloro-1,3-benzothiazol-2-yl)oxy]phenyl}-N-(1,3-dimethoxypropan-2-yl)propanamide] | 0.112 (≈ 0.0487 µg/mL) | 
13 | CC(C(=O)N(C)CCN(C)C)c1ccc(Oc2nc3ccc(Cl)cc3s2)cc1 (stereo not shown) [NZ-547, 2-{4-[(6-chloro-1,3-benzothiazol-2-yl)oxy]phenyl}-N-[2-(dimethylamino)ethyl]-N-methylpropanamide] | < 0.056 | inhibition at 0.056 µM (Cryptosporidium parvum): 96%
14 | CNCCNC(=O)C(C)c1ccc(Oc2nc3ccc(Cl)cc3s2)cc1 (stereo not shown) [NZ-548, 2-{4-[(6-chloro-1,3-benzothiazol-2-yl)oxy]phenyl}-N-[2-(methylamino)ethyl]propanamide] | 0.112 to 0.225 (≈ 0.0437 to 0.0877 µg/mL) | inhibition at 0.112 µM (Cryptosporidium parvum, HCT-8, @0.112 uM): 45%
15 | CC(C(=O)N1CCOC(C(N)=O)C1)c1ccc(Oc2nc3ccc(Cl)cc3s2)cc1 (stereo not shown) [NZ-554, 4-(2-{4-[(6-chloro-1,3-benzothiazol-2-yl)oxy]phenyl}propanoyl)morpholine-2-carboxamide] | 0.056 to 0.112 (≈ 0.025 to 0.0499 µg/mL) | 
16 | CC(C(=O)NCCN(C)CCO)c1ccc(Oc2nc3ccc(Cl)cc3s2)cc1 (stereo not shown) [NZ-556, 2-{4-[(6-chloro-1,3-benzothiazol-2-yl)oxy]phenyl}-N-{2-[(2-hydroxyethyl)(methyl)amino]ethyl}propanamide] | ~0.056 (≈ 0.0243 µg/mL) | inhibition at 0.056 µM (Cryptosporidium parvum): 64%
17 | CC(C(=O)NCCN(CCO)CCO)c1ccc(Oc2nc3ccc(Cl)cc3s2)cc1 (stereo not shown) [NZ-557, N-{2-[bis(2-hydroxyethyl)amino]ethyl}-2-{4-[(6-chloro-1,3-benzothiazol-2-yl)oxy]phenyl}propanamide] | 0.112 to 0.225 (≈ 0.052 to 0.104 µg/mL) | 
18 | CC(C(=O)NC1CNC(=O)C1)c1ccc(Oc2nc3ccc(Cl)cc3s2)cc1 (stereo not shown) [NZ-562, 2-{4-[(6-chloro-1,3-benzothiazol-2-yl)oxy]phenyl}-N-(5-oxopyrrolidin-3-yl)propanamide] | ~0.45 (≈ 0.187 µg/mL) | 
19 | O=C(Nc1ccc(Oc2nc3ccc(Cl)cc3s2)cc1)NC1COC1 [NZ-574, 1-{4-[(6-chloro-1,3-benzothiazol-2-yl)oxy]phenyl}-3-(oxetan-3-yl)urea] | ~1 (≈ 0.376 µg/mL) | 

More lines, main results first:

Row | MIC50 [1] [µM] | SMILES | further results
20 | 0.25 (≈ 0.0897 µg/mL) | CNC(=O)C1(c2ccc(Oc3nc4ccc(Cl)cc4s3)cc2)CC1 [NZ-521, 1-{4-[(6-chloro-1,3-benzothiazol-2-yl)oxy]phenyl}-N-methylcyclopropane-1-carboxamide] | 
21 | 0.022 to 0.045 (≈ 0.00942 to 0.0193 µg/mL) | CN1CCN(C(=O)C2(c3ccc(Oc4nc5ccc(Cl)cc5s4)cc3)CC2)CC1 [NZ-522, 6-chloro-2-{4-[1-(4-methylpiperazine-1-carbonyl)cyclopropyl]phenoxy}-1,3-benzothiazole] | 
22 | < 0.056 | CC(C(=O)N1CCOCC1CO)c1ccc(Oc2nc3ccc(Cl)cc3s2)cc1 (stereo not shown) [NZ-555, 2-{4-[(6-chloro-1,3-benzothiazol-2-yl)oxy]phenyl}-1-[3-(hydroxymethyl)morpholin-4-yl]propan-1-one] | inhibition at 0.056 µM (Cryptosporidium parvum): 79%
23 | ~0.056 (≈ 0.0242 µg/mL) | CC(C(=O)N1CCOC(CO)C1)c1ccc(Oc2nc3ccc(Cl)cc3s2)cc1 (stereo not shown) [NZ-558, 2-{4-[(6-chloro-1,3-benzothiazol-2-yl)oxy]phenyl}-1-[2-(hydroxymethyl)morpholin-4-yl]propan-1-one] | 
24 | 0.04 (≈ 0.0166 µg/mL) | O=C(N1CCOCC1)C1(c2ccc(Oc3nc4ccc(Cl)cc4s3)cc2)CC1 [NZ-561, 6-chloro-2-{4-[1-(morpholine-4-carbonyl)cyclopropyl]phenoxy}-1,3-benzothiazole] | 
25 | 0.018 (≈ 0.00833 µg/mL) | O=C(N1CCS(=O)(=O)CC1)C1(c2ccc(Oc3nc4ccc(Cl)cc4s3)cc2)CC1 [NZ-563, 4-(1-{4-[(6-chloro-1,3-benzothiazol-2-yl)oxy]phenyl}cyclopropanecarbonyl)-1λ^6,4-thiomorpholine-1,1-dione] | 
26 | 0.054 (≈ 0.0216 µg/mL) | O=C(NC1COC1)C1(c2ccc(Oc3nc4ccc(Cl)cc4s3)cc2)CC1 [NZ-564, 1-{4-[(6-chloro-1,3-benzothiazol-2-yl)oxy]phenyl}-N-(oxetan-3-yl)cyclopropane-1-carboxamide] | 
27 | ~0.5 (≈ 0.195 µg/mL) | O=C(Nc1ccc(Oc2nc3ccc(Cl)cc3s2)cc1)N1CCOCC1 [NZ-572, N-{4-[(6-chloro-1,3-benzothiazol-2-yl)oxy]phenyl}morpholine-4-carboxamide] | 
28 | ~0.5 (≈ 0.219 µg/mL) | O=C(Nc1ccc(Oc2nc3ccc(Cl)cc3s2)cc1)N1CCS(=O)(=O)CC1 [NZ-573, N-{4-[(6-chloro-1,3-benzothiazol-2-yl)oxy]phenyl}-1,1-dioxo-1λ^6,4-thiomorpholine-4-carboxamide] | 
29 | ~1 (≈ 0.389 µg/mL) | O=C(Cc1ccc(Oc2nc3ccc(Cl)cc3s2)cc1)N1CCOCC1 [NZ-575, 2-{4-[(6-chloro-1,3-benzothiazol-2-yl)oxy]phenyl}-1-(morpholin-4-yl)ethan-1-one] | 
